# How the values were obtained:
# Assay in all cases: NCI-60 one-dose assay
# Assay type in all cases: cell-based
# MDA-MB-435 = settings: Homo sapiens, MDA-MB-435 (Melanoma), read-out: Cell Inhibition Percent
# Experimental: (§1) The final compounds were submitted to the National Cancer Institute, Bethesda, USA, for screening in vitro for anti-cancer. […] compounds, 4a–j, 5, and 6, were selected according to the Development Therapeutic Program (DTP) protocol. The selected compounds were evaluated for their in vitro cytotoxic activity against a panel of sixty cancer cell lines (NCI-60 cell line panel) derived from six cell lines panel of leukemia, nine cell lines of lung cancer, six cell lines of CNS cancer, seven cell lines of colon cancer, eight cell lines of melanoma, six cell lines of ovarian cancer, eight cell lines of renal cancer, two cell lines of prostate cancer, and eight cell lines of breast cancer, representing the full nine human systems as leukemia, melanoma, and cancers of the lung, colon, brain, breast, ovary, kidney, and prostate.
# (§2) The selected compounds 4a–j, 5, and 6 were tested at a single concentration of 10 µM. The screening results for the selected compounds are illustrated in Table 1.
# (§3) The NCI anti-cancer screening methodology has been described in detail elsewhere (http://www.dtp.nci.nih.gov, accessed on 20 February 2021). Following the Drug Evaluation Branch protocol, National Cancer Institute, Bethesda, USA, a primary anti-cancer assay was performed on approximately 60 human tumor cell line panels derived from nine neoplastic diseases.
# SNB-75 = settings: Homo sapiens, SNB-75 (CNS cancer), read-out: Cell Inhibition Percent
# Experimental: as §1, §2, §3
# 786-0 = settings: Homo sapiens, 786-0 (Renal Cancer), read-out: Cell Inhibition Percent
# Experimental: as §1, §2, §3
# MDA-MB 231 = settings: Homo sapiens, MDA-MB 231 (Breast Cancer), read-out: Cell Inhibition Percent
# Experimental: as §1, §2, §3
# HOP-62 = settings: Homo sapiens, HOP-62 (Non-Small Cell Lung Cancer), read-out: Cell Inhibition Percent
# Experimental: as §1, §2, §3
# ACHN = settings: Homo sapiens, ACHN (Renal Cancer), read-out: Cell Inhibition Percent
# Experimental: as §1, §2, §3
# LOX IMVI = settings: Homo sapiens, LOX IMVI (Melanoma), read-out: Cell Inhibition Percent
# Experimental: as §1, §2, §3
# HCT-116 = settings: Homo sapiens, HCT-116 (Colon Cancer), read-out: Cell Inhibition Percent
# Experimental: as §1, §2, §3
# NCI-H226 = settings: Homo sapiens, NCI-H226 (Non-Small Cell Lung Cancer), read-out: Cell Inhibition Percent
# Experimental: as §1, §2, §3
# MOLT-4 = settings: Homo sapiens, MOLT-4 (Leukemia), read-out: Cell Inhibition Percent
# Experimental: as §1, §2, §3
# IGROV1 = settings: Homo sapiens, IGROV-1, IGROV1 (ovarian cancer), read-out: Cell Inhibition Percent
# Experimental: as §1, §2, §3
# OVCAR-8 = settings: Homo sapiens, OVCAR-8 (ovarian cancer), read-out: Cell Inhibition Percent
# Experimental: as §1, §2, §3
# HCT-15 = settings: Homo sapiens, HCT-15 (Colon Cancer), read-out: Cell Inhibition Percent
# Experimental: as §1, §2, §3
# U251 = settings: Homo sapiens, U-251, U251 (CNS cancer), read-out: Cell Inhibition Percent
# Experimental: as §1, §2, §3
# EKVX = settings: Homo sapiens, EKVX (Non-Small Cell Lung Cancer), read-out: Cell Inhibition Percent
# Experimental: as §1, §2, §3
# UACC-257 = settings: Homo sapiens, UACC-257 (Melanoma), read-out: Cell Inhibition Percent
# Experimental: as §1, §2, §3
# OVCAR-5 = settings: Homo sapiens, OVCAR-5 (ovarian cancer), read-out: Cell Inhibition Percent
# Experimental: as §1, §2, §3
# PC-3 = settings: Homo sapiens, PC-3 (Prostate Cancer), read-out: Cell Inhibition Percent
# Experimental: as §1, §2, §3
# MCF7 = settings: Homo sapiens, MCF7 (Breast Cancer), read-out: Cell Inhibition Percent
# Experimental: as §1, §2, §3
# UO-31 = settings: Homo sapiens, UO-31 (Renal Cancer), read-out: Cell Inhibition Percent
# Experimental: as §1, §2, §3
# HOP-92 = settings: Homo sapiens, HOP-92 (Non-Small Cell Lung Cancer), read-out: Cell Inhibition Percent
# Experimental: as §1, §2, §3
# A498 = settings: Homo sapiens, A498 (Renal Cancer), read-out: Cell Inhibition Percent
# Experimental: as §1, §2, §3
# SK-MEL-5 = settings: Homo sapiens, SK-MEL-5 (Melanoma), read-out: Cell Inhibition Percent
# Experimental: as §1, §2, §3
# MDA-MB-468 = settings: Homo sapiens, MDA-MB-468 (Breast Cancer), read-out: Cell Inhibition Percent
# Experimental: as §1, §2, §3
# KM12 = settings: Homo sapiens, KM12 (Colon Cancer), read-out: Cell Inhibition Percent
# Experimental: as §1, §2, §3
# HL-60(TB) = settings: Homo sapiens, HL-60(TB) (Leukemia), read-out: Cell Inhibition Percent
# Experimental: as §1, §2, §3
# SF-539 = settings: Homo sapiens, SF-539 (CNS cancer), read-out: Cell Inhibition Percent
# Experimental: as §1, §2, §3
# UACC-62 = settings: Homo sapiens, UACC-62 (Melanoma), read-out: Cell Inhibition Percent
# Experimental: as §1, §2, §3
# SF-268 = settings: Homo sapiens, SF-268 (CNS cancer), read-out: Cell Inhibition Percent
# Experimental: as §1, §2, §3
# NCI-H23 = settings: Homo sapiens, NCI-H23 (Non-Small Cell Lung Cancer), read-out: Cell Inhibition Percent
# Experimental: as §1, §2, §3
# NCI-H322M = settings: Homo sapiens, NCI-H322M (Non-Small Cell Lung Cancer), read-out: Cell Inhibition Percent
# Experimental: as §1, §2, §3
compound,measurement,setting,value
"O=C(NN=Cc1ccccc1)c1ccc2[nH]c(-c3ccc(Cl)cc3)nc2c1 [Compound 4a, N′-Benzylidene-2-(4-chlorophenyl)-1H-benzimidazole-5-carbohydrazide]",inhibition at 10 µM,MDA-MB-435,0%
same,inhibition at 10 µM,SNB-75,10.7%
same,inhibition at 10 µM,786-0,11.6%
same,inhibition at 10 µM,MDA-MB 231,0%
same,inhibition at 10 µM,HOP-62,0%
same,inhibition at 10 µM,ACHN,3.26%
same,inhibition at 10 µM,LOX IMVI,7.23%
same,inhibition at 10 µM,HCT-116,0%
same,inhibition at 10 µM,NCI-H226,5.74%
same,inhibition at 10 µM,MOLT-4,12.9%
same,inhibition at 10 µM,IGROV1,4.8%
same,inhibition at 10 µM,OVCAR-8,1.37%
same,inhibition at 10 µM,HCT-15,4.81%
same,inhibition at 10 µM,U251,4.35%
same,inhibition at 10 µM,EKVX,1.38%
same,inhibition at 10 µM,UACC-257,0%
same,inhibition at 10 µM,OVCAR-5,0%
same,inhibition at 10 µM,PC-3,0%
same,inhibition at 10 µM,MCF7,23.5%
same,inhibition at 10 µM,UO-31,8.73%
same,inhibition at 10 µM,HOP-92,0%
same,inhibition at 10 µM,A498,22.1%
same,inhibition at 10 µM,SK-MEL-5,4.85%
same,inhibition at 10 µM,MDA-MB-468,0%
same,inhibition at 10 µM,KM12,3.8%
same,inhibition at 10 µM,HL-60(TB),0%
same,inhibition at 10 µM,SF-539,9.57%
same,inhibition at 10 µM,UACC-62,0%
same,inhibition at 10 µM,SF-268,0%
same,inhibition at 10 µM,NCI-H23,1.85%
same,inhibition at 10 µM,NCI-H322M,0%

# From article PMC10819888, “Benzimidazole-Based Derivatives as Apoptotic Antiproliferative Agents: Design, Synthesis, Docking, and Mechanistic Studies” (Molecules, 2024)
